Data reported in USRE39591E1, “6-O-substituted ketolides having antibacterial activity” (Abbott Laboratories, priority 1996, dated 2007).
In brackets after ≈: the same amount, converted by molar mass.

Test system: up to 32 different microorganisms
Experiment: in vitro antibacterial activity (MIC), agar dilution on Brain Heart Infusion (BHI) agar with Steers replicator
Format: cell-based
Conditions: unit assumed
Description: Representative compounds of the present invention were assayed in vitro for antibacterial activity as follows: Twelve petri dishes containing successive aqueous dilutions of the test compound mixed with 10 mL of sterilized Brain Heart Infusion (BHI) agar (Difco 0148-01-5) were prepared. Each plate was inoculated with 1:100 (or 1:10 for slow-growing strains, such as Micrococcus and Streptococcus) dilutions of up to 32 different microorganisms, using a Steers replicator block. The inoculated plates were incubated at 35°-37° C. for 20 to 24 hours. In addition, a control plate, using BHI agar containing no test compound, was prepared and incubated at the beginning and end of each test.
An additional plate containing a compound having known susceptibility patterns for the organisms being tested and belonging to the same antibiotic class as the test compound was also prepared and incubated as a further control, as well as to provide test-to-test comparability. Erythromycin A was used for this purpose.
After incubation, each plate was visually inspected. The minimum inhibitory concentration (MIC) was defined as the lowest concentration of drug yielding no growth, a slight haze, or sparsely isolated colonies on the inoculum spot as compared to the growth control.

[1] = Candida albicans CCH 442 (code TT)
[2] = Enterococcus faecism ATCC 8043 (code II)
[3] = Escherichia coli DC-2 (code SS)
[4] = Escherichia coli JUHL (code QQ)
[5] = Haemophilis influenzae DILL AMP R (code WW)
[6] = Micrococcus luteus ATCC 4698 (code PP)
[7] = Micrococcus luteus ATCC 9341 (code OO)
[8] = Mycobacterium smegmatis ATCC 114 (code UU)
[9] = Nocardia Asteroides ATCC9970 (code VV)
[10] = Staphylococcus aureus 1775 (code GG)
[11] = Staphylococcus aureus A5177 (code BB)
[12] = Staphylococcus aureus A-5278 (code CC)
[13] = Staphylococcus aureus ATCC 6538P (code AA)
[14] = Staphylococcus aureus CMX 553 (code FF)
[15] = Staphylococcus aureus CMX 642A (code DD)
[16] = Staphylococcus aureus NCTC10649M (code EE)
[17] = Staphylococcus epidermidis 3519 (code HH)
[18] = Streptococcus Pneumonia 5649 (code ZZA)
[19] = Streptococcus Pneumonia 5979 (code ZZ)
[20] = Streptococcus Pneumonia ATCC6303 (code XX)
[21] = Streptococcus Pneumonia GYR 1171 (code YY)
[22] = Streptococcus agalactiae CMX 508 (code KK)
[23] = Streptococcus bovis A-5169 (code JJ)
[24] = Streptococcus pyogenes 930 (code MM)
[25] = Streptococcus pyogenes EES61 (code LL)
[26] = Streptococcus pyogenes PIU 2548 (code NN)

CCC1OC(=O)C(C)C(=O)C(C)C(OC2OC(C)CC(N(C)C)C2O)C(C)(OCC=Cc2cncc3ccccc23)CC(C)C(=O)C(C)C2NC(=O)OC12C (centres unmarked) [Example 187, R is —CH2CH═CH-(4-isoquinolinyl)]
MIC [1]: > 100 µg/mL
MIC [2]: 0.02 µg/mL (≈ 0.0261 µM)
MIC [3]: > 100 µg/mL
MIC [4]: 100 µg/mL (≈ 131 µM)
MIC (Escherichia coli SS (code RR)): 0.39 µg/mL (≈ 0.509 µM)
MIC [5]: 2 µg/mL (≈ 2.61 µM)
MIC [6]: 0.02 µg/mL (≈ 0.0261 µM)
MIC [7]: 0.02 µg/mL (≈ 0.0261 µM)
MIC [8]: 0.78 µg/mL (≈ 1.02 µM)
MIC [9]: 0.1 µg/mL (≈ 0.131 µM)
MIC [10]: > 100 µg/mL
MIC [11]: 0.1 µg/mL (≈ 0.131 µM)
MIC [12]: > 100 µg/mL
MIC [13]: 0.2 µg/mL (≈ 0.261 µM)
MIC [14]: 0.1 µg/mL (≈ 0.131 µM)
MIC [15]: 0.1 µg/mL (≈ 0.131 µM)
MIC [16]: 0.1 µg/mL (≈ 0.131 µM)
MIC [17]: 0.1 µg/mL (≈ 0.131 µM)
MIC [18]: 0.25 µg/mL (≈ 0.326 µM)
MIC [19]: > 16 µg/mL
MIC [20]: 0.03 µg/mL (≈ 0.0392 µM)
MIC [21]: 0.03 µg/mL (≈ 0.0392 µM)
MIC [22]: 0.02 µg/mL (≈ 0.0261 µM)
MIC [23]: ≤ 0.005 µg/mL
MIC [24]: 25 µg/mL (≈ 32.6 µM)
MIC [25]: 0.01 µg/mL (≈ 0.0131 µM)
MIC [26]: 0.1 µg/mL (≈ 0.131 µM)

CCC1OC(=O)C(C)C(=O)C(C)C(OC2OC(C)CC(N(C)C)C2O)C(C)(OCC=Cc2ccc3c(c2)OCO3)CC(C)C(=O)C(C)C2NC(=O)OC12C (centres unmarked) [Example 188, R is —CH2CH═CH-(3,4-methylenedioxyphenyl)]
MIC [1]: > 100 µg/mL
MIC [2]: 0.05 µg/mL (≈ 0.0659 µM)
MIC [3]: > 100 µg/mL
MIC [4]: > 100 µg/mL
MIC (Escherichia coli SS (code RR)): 0.78 µg/mL (≈ 1.03 µM)
MIC [5]: 8 µg/mL (≈ 10.5 µM)
MIC [6]: 0.2 µg/mL (≈ 0.264 µM)
MIC [7]: 0.02 µg/mL (≈ 0.0264 µM)
MIC [8]: 0.78 µg/mL (≈ 1.03 µM)
MIC [9]: 0.39 µg/mL (≈ 0.514 µM)
MIC [10]: > 100 µg/mL
MIC [11]: 0.1 µg/mL (≈ 0.132 µM)
MIC [12]: > 100 µg/mL
MIC [13]: 0.1 µg/mL (≈ 0.132 µM)
MIC [14]: 0.1 µg/mL (≈ 0.132 µM)
MIC [15]: 0.1 µg/mL (≈ 0.132 µM)
MIC [16]: 0.2 µg/mL (≈ 0.264 µM)
MIC [17]: 0.2 µg/mL (≈ 0.264 µM)
MIC [18]: 1 µg/mL (≈ 1.32 µM)
MIC [19]: > 64 µg/mL
MIC [20]: 0.03 µg/mL (≈ 0.0395 µM)
MIC [21]: 0.03 µg/mL (≈ 0.0395 µM)
MIC [22]: ≤ 0.005 µg/mL
MIC [23]: ≤ 0.005 µg/mL
MIC [24]: 25 µg/mL (≈ 32.9 µM)
MIC [25]: 0.01 µg/mL (≈ 0.0132 µM)
MIC [26]: 0.1 µg/mL (≈ 0.132 µM)

CCC1OC(=O)C(C)C(=O)C(C)C(OC2OC(C)CC(N(C)C)C2O)C(C)(OCC=Cc2cccc3cccnc23)CC(C)C(=O)C(C)C2NC(=O)OC12C (centres unmarked) [Example 189, R is —CH2CH-(8-quinolyl)]
MIC [1]: > 100 µg/mL
MIC [2]: 0.05 µg/mL (≈ 0.0653 µM)
MIC [3]: 50 µg/mL (≈ 65.3 µM)
MIC [4]: 100 µg/mL (≈ 131 µM)
MIC (Escherichia coli SS (code RR)): 0.39 µg/mL (≈ 0.509 µM)
MIC [5]: 8 µg/mL (≈ 10.4 µM)
MIC [6]: 0.1 µg/mL (≈ 0.131 µM)
MIC [7]: 0.02 µg/mL (≈ 0.0261 µM)
MIC [8]: 0.78 µg/mL (≈ 1.02 µM)
MIC [9]: 0.05 µg/mL (≈ 0.0653 µM)
MIC [10]: > 100 µg/mL
MIC [11]: 0.1 µg/mL (≈ 0.131 µM)
MIC [12]: > 100 µg/mL
MIC [13]: 0.2 µg/mL (≈ 0.261 µM)
MIC [14]: 0.1 µg/mL (≈ 0.131 µM)
MIC [15]: 0.2 µg/mL (≈ 0.261 µM)
MIC [16]: 0.1 µg/mL (≈ 0.131 µM)
MIC [17]: 0.2 µg/mL (≈ 0.261 µM)
MIC [18]: 0.5 µg/mL (≈ 0.653 µM)
MIC [19]: > 32 µg/mL
MIC [20]: 0.125 µg/mL (≈ 0.163 µM)
MIC [21]: 0.06 µg/mL (≈ 0.0783 µM)
MIC [22]: ≤ 0.005 µg/mL
MIC [23]: ≤ 0.005 µg/mL
MIC [24]: 50 µg/mL (≈ 65.3 µM)
MIC [25]: ≤ 0.005 µg/mL
MIC [26]: 0.2 µg/mL (≈ 0.261 µM)

CCC1OC(=O)C(C)C(=O)C(C)C(OC2OC(C)CC(N(C)C)C2O)C(C)(OCC=Cc2ccc3[nH]ccc3c2)CC(C)C(=O)C(C)C2NC(=O)OC12C (centres unmarked) [Example 190, R is —CH2CH═CH-(5-indolyl)]
MIC [1]: > 100 µg/mL
MIC [2]: 0.02 µg/mL (≈ 0.0265 µM)
MIC [3]: 100 µg/mL (≈ 133 µM)
MIC [4]: 100 µg/mL (≈ 133 µM)
MIC (Escherichia coli SS (code RR)): 0.2 µg/mL (≈ 0.265 µM)
MIC [5]: 4 µg/mL (≈ 5.31 µM)
MIC [6]: 0.1 µg/mL (≈ 0.133 µM)
MIC [7]: 0.01 µg/mL (≈ 0.0133 µM)
MIC [8]: 0.78 µg/mL (≈ 1.03 µM)
MIC [9]: 0.1 µg/mL (≈ 0.133 µM)
MIC [10]: > 100 µg/mL
MIC [11]: 0.05 µg/mL (≈ 0.0663 µM)
MIC [12]: > 100 µg/mL
MIC [13]: 0.05 µg/mL (≈ 0.0663 µM)
MIC [14]: 0.02 µg/mL (≈ 0.0265 µM)
MIC [15]: 0.05 µg/mL (≈ 0.0663 µM)
MIC [16]: 0.02 µg/mL (≈ 0.0265 µM)
MIC [17]: 0.05 µg/mL (≈ 0.0663 µM)
MIC [18]: 0.5 µg/mL (≈ 0.663 µM)
MIC [19]: > 128 µg/mL
MIC [20]: 0.06 µg/mL (≈ 0.0796 µM)
MIC [21]: 0.03 µg/mL (≈ 0.0398 µM)
MIC [22]: ≤ 0.005 µg/mL
MIC [23]: ≤ 0.005 µg/mL
MIC [24]: 12.5 µg/mL (≈ 16.6 µM)
MIC [25]: ≤ 0.005 µg/mL
MIC [26]: 0.1 µg/mL (≈ 0.133 µM)

CCC1OC(=O)C(C)C(=O)C(C)C(OC2OC(C)CC(N(C)C)C2O)C(C)(OCC=Cc2cnc3ccc(Cl)cc3c2)CC(C)C(=O)C(C)C2NC(=O)OC12C (centres unmarked) [Example 191, R is —CH2CH═CH-(6-chloro-3-quinolyl)]
MIC [1]: > 100 µg/mL
MIC [2]: 0.05 µg/mL (≈ 0.0625 µM)
MIC [3]: 100 µg/mL (≈ 125 µM)
MIC [4]: 50 µg/mL (≈ 62.5 µM)
MIC (Escherichia coli SS (code RR)): 0.2 µg/mL (≈ 0.25 µM)
MIC [5]: 2 µg/mL (≈ 2.5 µM)
MIC [6]: 0.1 µg/mL (≈ 0.125 µM)
MIC [7]: 0.01 µg/mL (≈ 0.0125 µM)
MIC [8]: 0.39 µg/mL (≈ 0.487 µM)
MIC [9]: 0.02 µg/mL (≈ 0.025 µM)
MIC [10]: > 100 µg/mL
MIC [11]: 0.05 µg/mL (≈ 0.0625 µM)
MIC [12]: > 100 µg/mL
MIC [13]: 0.05 µg/mL (≈ 0.0625 µM)
MIC [14]: 0.05 µg/mL (≈ 0.0625 µM)
MIC [15]: 0.05 µg/mL (≈ 0.0625 µM)
MIC [16]: 0.1 µg/mL (≈ 0.125 µM)
MIC [17]: 0.05 µg/mL (≈ 0.0625 µM)
MIC [18]: 0.25 µg/mL (≈ 0.312 µM)
MIC [19]: 2 µg/mL (≈ 2.5 µM)
MIC [20]: 0.03 µg/mL (≈ 0.0375 µM)
MIC [21]: 0.03 µg/mL (≈ 0.0375 µM)
MIC [22]: 0.05 µg/mL (≈ 0.0625 µM)
MIC [24]: 3.1 µg/mL (≈ 3.87 µM)
MIC [25]: 0.02 µg/mL (≈ 0.025 µM)
MIC [26]: 0.1 µg/mL (≈ 0.125 µM)
